Active and inactive are the calls of the source. The rule behind the calls is not given here.
Key:
Cytochrome P450 2D6 = Cytochrome P450 2D6 (Homo sapiens, UniProt P10635); test: Inhibition of CYP2D6 in human liver microsomes using dextromethorphan as substrate in presence of NADPH; type: ADME, Microsome
MC-38 [1] = test: Antitumor activity against mouse MC38 cells implanted in C57BL/6J mouse assessed as tumor growth inhibition at 0.1 mg/kg, po BID measured after 4 weeks; type: functional; conditions: MC-38, 672 h, read-out: TGI
[2] = Half-life in Beagle dog at 1 mg/kg, iv measured upto 24 hrs by LC-MS analysis; conditions: in vivo
[3] = In vivo induction of phosphorylated SLP-76 degradation in C57BL/6J mouse spleen at 0.5 mg/kg administered as single dose and measured after 12 hrs; type: functional
[4] = AUCinfinity in C57BL/6J mouse at 10 mg/kg, po measured upto 24 hrs by LC-MS analysis; type: ADME, organism-based; conditions: in vivo
[5] = Drug metabolism in dog hepatocytes assessed as phase 2 metabolites formation at 10 uM incubated for 120 mins by UHPLC-UV/MS/MS method; type: ADME, cell-based, Canis lupus familiaris, Hepatocyte; conditions: 2 h
[6] = AUC(0 to 24 hrs) in male Sprague-Dawley rat at 100 mg/kg/day, po measured at day 1; type: ADME, organism-based; conditions: in vivo, time 1 day
in vivo [7] = conditions: male, Sprague-Dawley, rat, po, 2 mg/kg
[8] = Tmax in female Sprague-Dawley rat at 30 mg/kg/day, po measured at day 14; type: ADME, organism-based; conditions: in vivo, time 14 day
[9] = Tmax in C57BL/6J mouse at 10 mg/kg, po measured upto 24 hrs by LC-MS analysis; type: ADME, organism-based; conditions: in vivo
[10] = Toxicity in C57BL/6J mouse assessed as body weight loss at 0.1 to 0.5 mg/kg, po bid administered for 3 to 4 weeks; type: organism-based; conditions: in vivo, dose lower 0.1 mg/kg, time lower 3 weeks, dose upper 0.5 mg/kg, time upper 4 weeks
[11] = Toxicity in C57BL/6J mouse assessed as change in body weight at 0.1 to 1 mg/kg, po bid measured after 28 days in presence of 5 mg/kg anti-PD1; type: organism-based; conditions: in vivo, 672 h, dose 0.1-1 mg/kg, time 28 day
[12] = Drug distribution in rat kidney measured after 0.5 to 6 hrs; type: ADME, tissue-based; conditions: in vivo, time 0.5-6 hrs
[13] = Plasma protein binding in mouse at 10 uM incubated for 6 hrs by equilibrium dialysis based LC-MS/MS method; type: ADME, cell-free; conditions: read-out: PPB (converted)
[14] = Metabolic stability in human liver microsomes assessed as intrinsic clearance at 1 uM incubated for 45 mins by LC-MS/MS method; type: ADME, Microsome; conditions: read-out: CLH
[15] = Apparent permeability across basolateral to apical side in human Caco-2 cells at 10 uM incubated for 2 hrs by LC-MS/MS analysis; type: ADME, cell-based
[16] = AUCinfinity in C57BL/6J mouse at 2 mg/kg, iv measured upto 24 hrs by LC-MS analysis; type: ADME, organism-based; conditions: in vivo
[17] = Apparent volume of distribution in mouse at 2 mg/kg, iv measured upto 24 hrs by LC-MS analysis; type: ADME, organism-based; conditions: in vivo
MC-38 [18] = test: Antitumor activity against mouse MC38 cells implanted in C57BL/6J mouse assessed as reduction in tumor weight at 0.5 mg/kg, po BID administered for 3 to 4 weeks (reference value: 1.79 +/- 0.24 g); type: functional; conditions: time 3-4 weeks
[19] = Drug metabolism in human hepatocytes assessed as phase 2 metabolites formation at 10 uM incubated for 120 mins by UHPLC-UV/MS/MS method; type: ADME, cell-based, Hepatocyte; conditions: 2 h
Cytochrome P450 3A4 = Cytochrome P450 3A4 (Homo sapiens, UniProt P08684); test: Inhibition of CYP3A4 in human liver microsomes using midazolam as substrate in presence of NADPH; type: ADME, Microsome
Chain of Cytochrome P450 3A4 (P08684 whole entry): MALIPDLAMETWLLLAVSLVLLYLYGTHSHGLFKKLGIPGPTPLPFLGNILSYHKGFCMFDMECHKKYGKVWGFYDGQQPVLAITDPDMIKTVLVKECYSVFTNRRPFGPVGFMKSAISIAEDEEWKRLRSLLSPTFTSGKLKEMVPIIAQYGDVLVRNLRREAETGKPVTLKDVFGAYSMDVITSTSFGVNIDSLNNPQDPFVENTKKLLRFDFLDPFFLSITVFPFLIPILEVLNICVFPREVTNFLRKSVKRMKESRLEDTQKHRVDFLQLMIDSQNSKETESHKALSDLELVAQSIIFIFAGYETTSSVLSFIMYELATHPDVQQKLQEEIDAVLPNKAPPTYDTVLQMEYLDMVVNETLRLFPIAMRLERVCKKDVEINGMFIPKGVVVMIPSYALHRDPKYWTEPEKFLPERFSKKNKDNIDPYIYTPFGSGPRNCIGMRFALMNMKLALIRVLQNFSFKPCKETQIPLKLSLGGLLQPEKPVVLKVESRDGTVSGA

MC-38 [20] = test: Antitumor activity against mouse MC38 cells implanted in C57BL/6J mouse assessed as tumor weight inhibition rate at 100 mg/kg, po QD administered for 4 weeks; type: functional; parameters: scale not given: the % may be the effect or the level left
in vivo [21] = conditions: female, Sprague-Dawley, rat, po, 100 mg/kg
Jurkat [22] = test: Induction of GLK degradation in human Jurkat cells at 1 to 1000 nM incubated for 24 hrs by Western blotting analysis; type: cell-based; conditions: dose 1-1000 nM
in vivo [23] = conditions: female, Sprague-Dawley, rat, po, 100 mg/kg; remark: listed apart in the source
in vivo [24] = conditions: female, Sprague-Dawley, rat, po, 30 mg/kg
[25] = Tmax in female Sprague-Dawley rat at 100 mg/kg/day, po measured at day 14; type: ADME, organism-based; conditions: in vivo, time 14 day
[26] = biological target: Mitogen-activated protein kinase kinase kinase kinase 4 (Homo sapiens) (UniProt O95819); test: Induction of HGK degradation in human Jurkat cells at 1 to 1000 nM incubated for 24 hrs by Western blotting analysis; type: cell-based; conditions: dose 1-1000 nM
Chain of Mitogen-activated protein kinase kinase kinase kinase 4 (Homo sapiens) (O95819 2-1239 limits assumed): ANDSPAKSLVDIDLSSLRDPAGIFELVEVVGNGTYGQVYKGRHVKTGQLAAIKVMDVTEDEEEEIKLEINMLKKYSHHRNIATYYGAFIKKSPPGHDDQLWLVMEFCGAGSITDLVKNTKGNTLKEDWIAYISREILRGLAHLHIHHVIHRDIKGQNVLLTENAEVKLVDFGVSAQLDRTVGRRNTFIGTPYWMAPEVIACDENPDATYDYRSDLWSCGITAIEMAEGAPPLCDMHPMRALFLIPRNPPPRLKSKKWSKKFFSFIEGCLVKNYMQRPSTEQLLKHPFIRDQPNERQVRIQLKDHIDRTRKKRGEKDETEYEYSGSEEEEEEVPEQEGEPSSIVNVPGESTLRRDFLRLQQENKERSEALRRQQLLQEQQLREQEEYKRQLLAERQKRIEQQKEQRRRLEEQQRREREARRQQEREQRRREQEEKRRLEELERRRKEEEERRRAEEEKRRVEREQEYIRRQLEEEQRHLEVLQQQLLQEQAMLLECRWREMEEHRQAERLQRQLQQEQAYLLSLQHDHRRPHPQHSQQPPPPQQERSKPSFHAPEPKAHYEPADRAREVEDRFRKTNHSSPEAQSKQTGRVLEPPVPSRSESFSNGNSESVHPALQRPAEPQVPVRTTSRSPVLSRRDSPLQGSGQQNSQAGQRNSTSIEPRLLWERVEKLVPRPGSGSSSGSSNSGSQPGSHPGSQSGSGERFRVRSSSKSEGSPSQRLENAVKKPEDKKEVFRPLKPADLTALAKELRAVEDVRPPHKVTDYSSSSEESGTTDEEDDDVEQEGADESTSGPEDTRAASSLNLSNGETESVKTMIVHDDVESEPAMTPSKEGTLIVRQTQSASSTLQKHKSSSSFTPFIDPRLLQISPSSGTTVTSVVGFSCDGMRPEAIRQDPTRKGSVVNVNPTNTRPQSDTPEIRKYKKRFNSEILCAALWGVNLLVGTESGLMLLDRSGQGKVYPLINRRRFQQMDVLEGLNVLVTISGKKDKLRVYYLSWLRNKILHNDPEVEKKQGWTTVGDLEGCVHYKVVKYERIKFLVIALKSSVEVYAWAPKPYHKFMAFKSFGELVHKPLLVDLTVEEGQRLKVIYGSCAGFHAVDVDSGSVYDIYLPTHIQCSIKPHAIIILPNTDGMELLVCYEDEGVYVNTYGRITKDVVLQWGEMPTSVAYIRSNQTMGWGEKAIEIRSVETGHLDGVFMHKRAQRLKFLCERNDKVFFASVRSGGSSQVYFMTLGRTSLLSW

Jurkat [27] = test: Effect on SLP76 total protein expression in human Jurkat cells at 1 to 2000 nM incubated for 24 hrs by Western blotting assay; type: functional, cell-based; conditions: dose 1-2000 nM
[28] = Toxicity in Sprague-Dawley rat assessed as no observable adverse effect level measured after 14 days; conditions: in vivo, time 14 day
in vitro [29] = conditions: rhesus monkey, liver microsomes
in vivo [30] = conditions: female, Sprague-Dawley, rat, po, 2 mg/kg
[31] = Initial plasma concentration in Beagle dog at 1 mg/kg, iv measured upto 24 hrs by LC-MS analysis; type: ADME, organism-based, Canis lupus familiaris; conditions: in vivo
in vitro [32] = conditions: rat, hepatocytes
[33] = Initial plasma concentration in Sprague-Dawley rat at 2 mg/kg, iv measured upto 24 hrs by LC-MS analysis; type: ADME, organism-based
[34] = Drug distribution in rat lung measured after 0.5 to 6 hrs; type: ADME, tissue-based; conditions: in vivo, time 0.5-6 hrs
in vivo [35] = conditions: Sprague-Dawley, rat, po, 1 mg/kg
Cytochrome P450 2C19 = Cytochrome P450 2C19 (Homo sapiens, UniProt P33261); test: Inhibition of CYP2C19 in human liver microsomes using S-mephenytoin as substrate in presence of NADPH; type: ADME, Microsome
Chain of Cytochrome P450 2C19 (P33261 whole entry): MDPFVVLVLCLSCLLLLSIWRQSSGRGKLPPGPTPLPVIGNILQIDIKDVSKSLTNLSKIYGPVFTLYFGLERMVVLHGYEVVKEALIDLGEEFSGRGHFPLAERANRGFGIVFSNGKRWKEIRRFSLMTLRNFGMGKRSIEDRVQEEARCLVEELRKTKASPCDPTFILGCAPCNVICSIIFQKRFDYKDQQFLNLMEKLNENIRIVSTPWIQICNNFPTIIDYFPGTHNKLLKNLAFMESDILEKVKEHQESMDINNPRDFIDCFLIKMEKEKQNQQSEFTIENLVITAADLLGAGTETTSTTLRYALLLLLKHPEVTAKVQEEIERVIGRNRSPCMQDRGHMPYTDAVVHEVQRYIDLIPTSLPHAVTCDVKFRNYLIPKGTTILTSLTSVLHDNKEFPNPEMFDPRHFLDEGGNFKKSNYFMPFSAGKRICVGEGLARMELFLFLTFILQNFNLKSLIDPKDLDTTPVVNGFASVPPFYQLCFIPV

[36] = biological target: T1, Protein cereblon/Mitogen-activated protein kinase kinase kinase kinase 1 (Homo sapiens, UniProt Q92918+Q96SW2); test: PROTAC activity at CRBN/HPK1 in human Jurkat cells assessed as HPK1 degradation at 300 nM measured after 24 hrs by Western blotting analysis; type: cell-based
T1 sequence (Q92918 whole entry, looked up): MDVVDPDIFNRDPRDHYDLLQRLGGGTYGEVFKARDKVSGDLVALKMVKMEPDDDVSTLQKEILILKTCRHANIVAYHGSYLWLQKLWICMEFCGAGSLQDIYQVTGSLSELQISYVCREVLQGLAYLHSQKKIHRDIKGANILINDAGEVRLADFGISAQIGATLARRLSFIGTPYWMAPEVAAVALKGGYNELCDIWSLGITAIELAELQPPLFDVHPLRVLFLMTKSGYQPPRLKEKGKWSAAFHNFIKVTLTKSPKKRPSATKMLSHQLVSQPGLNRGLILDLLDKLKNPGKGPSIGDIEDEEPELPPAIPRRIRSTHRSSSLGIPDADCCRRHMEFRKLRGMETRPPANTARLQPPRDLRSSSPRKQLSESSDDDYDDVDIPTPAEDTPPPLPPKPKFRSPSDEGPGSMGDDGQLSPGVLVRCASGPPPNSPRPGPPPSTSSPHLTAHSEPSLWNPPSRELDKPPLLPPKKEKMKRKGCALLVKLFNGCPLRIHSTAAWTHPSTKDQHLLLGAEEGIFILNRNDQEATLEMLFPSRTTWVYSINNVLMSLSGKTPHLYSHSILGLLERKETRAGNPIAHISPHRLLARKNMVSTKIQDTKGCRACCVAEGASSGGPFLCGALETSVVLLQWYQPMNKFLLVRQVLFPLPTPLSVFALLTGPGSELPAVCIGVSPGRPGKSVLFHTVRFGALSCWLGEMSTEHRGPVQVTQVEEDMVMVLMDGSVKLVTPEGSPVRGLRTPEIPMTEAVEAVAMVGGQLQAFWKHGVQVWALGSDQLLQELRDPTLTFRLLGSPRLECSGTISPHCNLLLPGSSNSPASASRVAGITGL
T1 sequence (Q96SW2 whole entry, looked up): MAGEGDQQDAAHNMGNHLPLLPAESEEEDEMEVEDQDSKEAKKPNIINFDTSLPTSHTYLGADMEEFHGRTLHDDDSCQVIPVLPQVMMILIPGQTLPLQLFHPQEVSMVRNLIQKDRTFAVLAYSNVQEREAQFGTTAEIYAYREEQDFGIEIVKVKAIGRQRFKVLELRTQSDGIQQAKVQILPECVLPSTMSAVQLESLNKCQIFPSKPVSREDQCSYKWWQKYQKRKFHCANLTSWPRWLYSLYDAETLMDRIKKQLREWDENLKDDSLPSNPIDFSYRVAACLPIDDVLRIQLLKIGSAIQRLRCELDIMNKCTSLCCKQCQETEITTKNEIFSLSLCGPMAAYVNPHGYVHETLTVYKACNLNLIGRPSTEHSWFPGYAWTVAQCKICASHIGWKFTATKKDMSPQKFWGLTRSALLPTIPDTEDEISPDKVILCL

[37] = Clearance in mouse relative to hepatic blood flow; conditions: in vivo
[38] = AUC(0 to 24 hrs) in female Sprague-Dawley rat at 30 mg/kg/day, po measured at day 1; type: ADME, organism-based; conditions: in vivo, time 1 day
[39] = Tmax in male Sprague-Dawley rat at 30 mg/kg/day, po measured at day 1; type: ADME, organism-based; conditions: in vivo, time 1 day
[40] = biological target: T1, Protein cereblon/Mitogen-activated protein kinase kinase kinase kinase 1; test: PROTAC activity at CRBN/HPK1 in human Jurkat cells assessed as HPK1 degradation at 1 uM pretreated with lenalidomide for 4 hrs followed by compound addition and measured after 24 hrs by Western blotting analysis; type: cell-based

Chain of Cytochrome P450 2D6 (P10635 whole entry): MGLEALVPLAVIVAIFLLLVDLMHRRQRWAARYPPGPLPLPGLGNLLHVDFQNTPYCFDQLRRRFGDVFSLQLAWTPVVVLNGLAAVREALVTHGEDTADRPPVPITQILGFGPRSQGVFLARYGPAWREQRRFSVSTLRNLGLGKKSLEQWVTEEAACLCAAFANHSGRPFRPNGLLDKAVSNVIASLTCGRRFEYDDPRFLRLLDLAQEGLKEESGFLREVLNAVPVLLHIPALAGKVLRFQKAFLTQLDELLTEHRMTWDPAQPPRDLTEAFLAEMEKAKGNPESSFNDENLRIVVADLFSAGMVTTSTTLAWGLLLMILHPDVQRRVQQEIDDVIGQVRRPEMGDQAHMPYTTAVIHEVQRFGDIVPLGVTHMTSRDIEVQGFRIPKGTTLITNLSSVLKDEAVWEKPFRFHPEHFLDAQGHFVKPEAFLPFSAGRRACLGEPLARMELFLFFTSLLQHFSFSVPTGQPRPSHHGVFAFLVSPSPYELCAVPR

IC50 (Cytochrome P450 2D6): > 10 µM
half-life at 24 h [2]: 4.86 h
AUC(0-inf) [4]: 12100 ng·h/mL
Drug metabolism [5]: metabolite_detected
AUC(0-t) at 24 h [6]: 107000 ng·h/mL
AUC at 336 h (in vivo [7]): 830 ng·h/mL
Tmax [8]: 8.67 h
Tmax [9]: 1 h
Drug uptake [12]: Active
fraction unbound at 6 h, 10 µM [13]: 0.0025
microsomal CLint at 1 µM [14]: 3.48 µL/min/mg
Papp B→A at 2 h, 10 µM [15]: 0.112 ×10⁻⁶ cm/s
AUC(0-inf) [16]: 5560 ng·h/mL
Vz [17]: 0.121 L/kg
Drug metabolism [19]: metabolite_detected
IC50 (Cytochrome P450 3A4): > 10 µM
Cmax at 24 h (in vivo [21]): 11200 ng/mL
Cmax at 336 h (in vivo [23]): 8590 ng/mL
Cmax at 24 h (in vivo [24]): 4900 ng/mL
Tmax [25]: 8.67 h
Activity [26]: inactive
half-life at 0.75 h, 1 µM (in vitro [29]): 0.607 h
AUC at 336 h (in vivo [30]): 645 ng·h/mL
C0 [31]: 794 ng/mL
half-life at 1.5 h, 1 µM (in vitro [32]): 3.9 h
C0 at 24 h [33]: 3380 ng/mL
Drug uptake [34]: Active
bioavailability at 24 h (in vivo [35]): 19.2%
IC50 (Cytochrome P450 2C19): > 10 µM
Activity [36]: Active
clearance [37]: 27 mL/min/kg
AUC(0-t) at 24 h [38]: 51300 ng·h/mL
Tmax [39]: 8 h
Activity [40]: inactive
Compound: O=C1CCN(c2cc(C(=O)N3CCC(CC4CCN(c5ccc(-c6cnc7[nH]cc(-c8cnn(CC(F)(F)F)c8)c7n6)cn5)CC4)CC3)ccc2Cl)C(=O)N1
inhibition in vivo at 0.1 mg/kg (MC-38 [1]): 28.5%
Emax at 0.5 mg/kg [3]: 77.6%
Activity [10]: Non-toxic
Activity [11]: Non-toxic
Activity (MC-38 [18]): 1.04 g
Activity (MC-38 [20]): 48.76%
Activity (Jurkat [22]): inactive
Activity (Jurkat [27]): inactive
NOAEL at 336 h [28]: 100 mg/kg/day
